The subject of test [1] is Rattus norvegicus. The test is described as follows: Antinociceptive activity in Sprague-Dawley rat model of chronic constriction injury-induced mono-neuropathic pain assessed as reduction in mechanical allodynia by measuring paw withdrawal threshold at 20 mg/kg, po administered as single dose and measured 30 mins to 24 hrs post dose by Von Frey's hairs assay. The class given is functional, organism-based.

Test [2] deals with Rattus norvegicus. The test is described as follows: Antinociceptive activity in Sprague-Dawley rat model of chronic constriction injury-induced mono-neuropathic pain assessed as reduction in mechanical allodynia by measuring paw withdrawal threshold at 2 mg/kg, po administered as single dose and measured 30 mins to 24 hrs post dose by Von Frey's hairs assay. The class given is functional, organism-based.

Test [3] has as its system Rattus norvegicus. In words: Antinociceptive activity in Sprague-Dawley rat model of CFA-induced chronic inflammatory pain assessed as reduction in mechanical allodynia by measuring paw withdrawal threshold at 20 mg/kg, po administered as single dose and measured 30 mins to 24 hrs post dose by Von Frey's hairs assay. The class given is functional, organism-based.
The test system of test [4] is Rattus norvegicus. In words: Antinociceptive activity in Sprague-Dawley rat model of CFA-induced chronic inflammatory pain assessed as reduction in mechanical allodynia by measuring paw withdrawal threshold at 2 mg/kg, po administered as single dose and measured 30 mins to 24 hrs post dose by Von Frey's hairs assay. The class given is functional, organism-based.
The subject of test [5] is Rattus norvegicus. The test is described as follows: Antinociceptive activity in Sprague-Dawley rat model of chronic constriction injury-induced mono-neuropathic pain assessed as reduction in mechanical allodynia by measuring paw withdrawal threshold at 60 mg/kg, po administered as single dose and measured 30 mins to 24 hrs post dose by Von Frey's hairs assay. The class given is functional, organism-based.

Test [6] concerns Rattus norvegicus. In words: Antinociceptive activity in Sprague-Dawley rat model of chronic constriction injury-induced mono-neuropathic pain assessed as reduction in mechanical allodynia by measuring paw withdrawal threshold at 1.8 mg/kg, po administered as single dose and measured 30 mins to 24 hrs post dose by Von Frey's hairs assay. The class given is functional, organism-based.

Test [7] relates to Rattus norvegicus. In words: Antinociceptive activity in Sprague-Dawley rat model of CFA-induced chronic inflammatory pain assessed as reduction in mechanical allodynia by measuring paw withdrawal threshold at 1.8 mg/kg, po administered as single dose and measured 30 mins to 24 hrs post dose by Von Frey's hairs assay. The class given is functional, organism-based.
Test [8] deals with Rattus norvegicus. The test is described as follows: Antinociceptive activity in Sprague-Dawley rat model of CFA-induced chronic inflammatory pain assessed as reduction in mechanical allodynia by measuring paw withdrawal threshold at 10 mg/kg, po administered as single dose and measured 30 mins to 24 hrs post dose by Von Frey's hairs assay. The class given is functional, organism-based.

In test [9] the test system is Rattus norvegicus. The test is described as follows: Antinociceptive activity in Sprague-Dawley rat model of chronic constriction injury-induced mono-neuropathic pain assessed as reduction in mechanical allodynia by measuring paw withdrawal threshold at 3 mg/kg, po administered as single dose and measured 30 mins to 24 hrs post dose by Von Frey's hairs assay. The class given is functional, organism-based.

The subject of test [10] is Rattus norvegicus. The test is described as follows: Antinociceptive activity in Sprague-Dawley rat model of CFA-induced chronic inflammatory pain assessed as reduction in mechanical allodynia by measuring paw withdrawal threshold at 3 mg/kg, po administered as single dose and measured 30 mins to 24 hrs post dose by Von Frey's hairs assay. The class given is functional, organism-based.

Test [11] addresses 3',5'-cyclic-AMP phosphodiesterase 4D (Homo sapiens, UniProt Q08499). In words: Inhibition of human PDE4D catalytic domain using [3H]-cAMP or [3H]-cGMP incubated for 30 mins by scintillation counting method.
Test [12] relates to Rattus norvegicus. The test is described as follows: Antinociceptive activity in Sprague-Dawley rat model of chronic constriction injury-induced mono-neuropathic pain assessed as reduction in mechanical allodynia by measuring paw withdrawal threshold at 50 mg/kg, po administered as single dose and measured 30 mins to 24 hrs post dose by Von Frey's hairs assay. The class given is functional, organism-based.

Test [13] deals with Rattus norvegicus. In words: Antinociceptive activity in Sprague-Dawley rat model of chronic constriction injury-induced mono-neuropathic pain assessed as reduction in mechanical allodynia by measuring paw withdrawal threshold at 500 mg/kg, po administered as single dose and measured 30 mins to 24 hrs post dose by Von Frey's hairs assay. The class given is functional, organism-based.

Test [14] deals with Rattus norvegicus. The test is described as follows: Antinociceptive activity in Sprague-Dawley rat model of CFA-induced chronic inflammatory pain assessed as reduction in mechanical allodynia by measuring paw withdrawal threshold at 50 mg/kg, po administered as single dose and measured 30 mins to 24 hrs post dose by Von Frey's hairs assay. The class given is functional, organism-based.

Test [15] relates to Rattus norvegicus. In words: Antinociceptive activity in Sprague-Dawley rat model of CFA-induced chronic inflammatory pain assessed as reduction in mechanical allodynia by measuring paw withdrawal threshold at 500 mg/kg, po administered as single dose and measured 30 mins to 24 hrs post dose by Von Frey's hairs assay. The class given is functional, organism-based.
Test [16] deals with Rattus norvegicus. In words: Antinociceptive activity in Sprague-Dawley rat model of chronic constriction injury-induced mono-neuropathic pain assessed as reduction in mechanical allodynia by measuring paw withdrawal threshold at 200 mg/kg, po administered as single dose and measured 30 mins to 24 hrs post dose by Von Frey's hairs assay. The class given is functional, organism-based.

For test [17], the system named is Rattus norvegicus. In words: Antinociceptive activity in Sprague-Dawley rat model of CFA-induced chronic inflammatory pain assessed as reduction in mechanical allodynia by measuring paw withdrawal threshold at 60 mg/kg, po administered as single dose and measured 30 mins to 24 hrs post dose by Von Frey's hairs assay. The class given is functional, organism-based.

Test [18] has as its system Rattus norvegicus. The test is described as follows: Antinociceptive activity in Sprague-Dawley rat model of CFA-induced chronic inflammatory pain assessed as reduction in mechanical allodynia by measuring paw withdrawal threshold at 200 mg/kg, po administered as single dose and measured 30 mins to 24 hrs post dose by Von Frey's hairs assay. The class given is functional, organism-based.

For orientation: IC50 means the concentration at which inhibition is half-maximal. Higher therefore signals a need for much substance.

The source made the active and inactive calls.

3',5'-cyclic-AMP phosphodiesterase 4D, sequence (Q08499 whole entry, the tested form may be a part): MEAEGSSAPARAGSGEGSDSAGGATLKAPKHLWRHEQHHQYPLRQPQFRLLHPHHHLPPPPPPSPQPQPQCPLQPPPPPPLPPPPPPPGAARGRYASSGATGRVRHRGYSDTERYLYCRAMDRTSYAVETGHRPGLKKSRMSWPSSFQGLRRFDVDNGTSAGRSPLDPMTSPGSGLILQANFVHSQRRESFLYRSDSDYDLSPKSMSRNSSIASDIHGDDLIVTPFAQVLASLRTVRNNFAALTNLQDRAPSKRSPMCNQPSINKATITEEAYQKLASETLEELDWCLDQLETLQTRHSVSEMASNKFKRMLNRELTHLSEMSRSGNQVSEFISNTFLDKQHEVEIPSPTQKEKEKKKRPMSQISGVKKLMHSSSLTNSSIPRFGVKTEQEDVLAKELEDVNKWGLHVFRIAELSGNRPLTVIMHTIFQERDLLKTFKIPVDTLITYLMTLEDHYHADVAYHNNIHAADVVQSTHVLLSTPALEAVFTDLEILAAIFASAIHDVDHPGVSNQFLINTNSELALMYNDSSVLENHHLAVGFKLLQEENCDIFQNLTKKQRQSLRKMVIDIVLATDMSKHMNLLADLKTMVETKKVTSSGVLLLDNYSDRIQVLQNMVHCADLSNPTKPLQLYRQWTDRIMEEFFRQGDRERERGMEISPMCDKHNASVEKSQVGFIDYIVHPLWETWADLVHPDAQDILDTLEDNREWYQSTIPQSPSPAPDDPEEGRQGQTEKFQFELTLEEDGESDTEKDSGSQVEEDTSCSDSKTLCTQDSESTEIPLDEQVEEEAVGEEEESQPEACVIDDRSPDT

On to `Nc1ncnc2c1ncn2CCOCP(=O)(O)O`, for which the result in the test on Rattus norvegicus [1], with Rattus norvegicus [2], in the test with Rattus norvegicus [3] and with Rattus norvegicus [4] was Active.
Regarding `CC(C)C[C@H](CN)CC(=O)O`, in the test with Rattus norvegicus [5], the result was Active.
As for `COc1cc(-c2ccc(=O)[nH]n2)ccc1OC(F)F`, the result in the test with Rattus norvegicus [1] and with Rattus norvegicus [3] was Active.
Take `O=C(Nc1c(Cl)cncc1Cl)c1ccc(OC(F)F)c(OCC2CC2)c1`: the result with Rattus norvegicus [6] and in the test with Rattus norvegicus [7] was Active.
Take `COc1ccc2c(c1)c(CC(=O)O)c(C)n2C(=O)c1ccc(Cl)cc1`: in the test with Rattus norvegicus [8], the outcome was Active.
Consider `COc1ccc([C@]2(C#N)CC[C@@H](C(=O)O)CC2)cc1OC1CCCC1`, for which the result with Rattus norvegicus [9] and in the test on Rattus norvegicus [10] was Active.
The compound `COc1cc2c(cc1OC)[C@@H]1CN(C)CC[C@@H]1N=C2c1ccc(NS(=O)(=O)c2ccc(C)cc2)cc1` displayed an IC50 in test [11] of 0.03 µM.
On to `C[C@H](Cn1cnc2c(N)ncnc21)OCP(=O)(O)O`, for which the outcome with Rattus norvegicus [12], in the test with Rattus norvegicus [13], in the test on Rattus norvegicus [14] and with Rattus norvegicus [15] was Active.
For the compound `COc1cc(Nc2c(C#N)cnc3cc(OCCCN4CCN(C)CC4)c(OC)cc23)c(Cl)cc1Cl`, the outcome with Rattus norvegicus [5], with Rattus norvegicus [16], in the test with Rattus norvegicus [17] and in the test on Rattus norvegicus [18] was Active.
